# Laboratory results taken from patent US9913870B2, “Method for stimulating AMP-activated protein kinase” (DHARMA BIOMEDICAL, LLC, priority 2012, dated 2018).
# “Also recorded” adds a separate entry of the source.
# Assays:
# 3T3-L1 adipocytes = experiment: Glucose uptake in differentiated adipocytes; assay type: cell-based; conditions: 72 hours
# Method: 3T3-LI preadipocytes were used for glucose uptake and they were differentiated in the same manner as for adipocyte staining. The differentiated adipocytes (0.5×10^6) were treated with increasing concentrations (2-100 μg/ml) of guggul extracts for 72 hours in DMEM medium containing 1 μM insulin. 2,4-Thiazolidinedione (0.005 μM-0.1 μM) was used as a positive control for comparison. After 72 hours, the medium was replaced with starving medium (DMEM without FBS) for 2 hours at 37° C. and then with 3 ml KRH buffer (136 mM NaCl, 4.7 mM KCl, 1.25 mM CaCl2, 1.25 mM Mg SO4, 10 mM Hepes, pH 7.4) with 1 uM insulin at 37° C. for 30 min. For glucose uptake, 4.5 mg/ml glucose was added into the KRH buffer and plates were incubated for another 15 min. The plates were washed 4 times with KRH buffer, cells were lysed with RIPA buffer (0.5 ml/plate). The protein concentration of the extract was estimated and 500 ug extract was used for glucose estimation using the assay kit from Sigma Chemical Co., MO. The absorbance of the reaction mixture was measured at 340 nm and glucose concentration calculated.
# human elastase = experiment: PMN-elastase expression ELISA in CCL-110 fibroblasts; assay type: cell-based; conditions: 24 hours
# Method: CCL-110 skin fibroblast cells (10^6) were plated in EMEM containing 0.5% FBS and treated with increasing concentrations of GU-TC7 and CoQ10 for 24 hours in a CO2 incubator. The monolayer was lysed with 500 μL of RIPA buffer (50 mM Tris PH 7.4, 150 mM NaCl, 0.1% SDS, 0.5% Sodium deoxycholate, 1% Triton X-100 with one tablet for 25 mL of buffer) and protein concentration of the cellular extract was determined. Cellular extract (100 μg protein) was analyzed for the expression of human elastase using the PMN-Elastase ELISA kit form Alpco Immunoassays (Salem, N.H., U.S.A.).
# type I collagen = experiment: Collagen type I expression ELISA in CCL-110 fibroblasts; assay type: cell-based, human; conditions: 24 hours, increasing concentrations
# Method: CCL-110 human fibroblast cells (0.5×10^6) were treated with increasing concentrations of GU-TC7 and CoQ10 for 24 hours in 0.5% starving medium. On the next day, the medium was completely removed, washed with phosphate buffered saline once and lysed with 500 μL of 0.05 M acetic acid (pH 2.8-3.0) and 50 μL of pepsin solution by incubating at 4° C. for 48 hours. Later, […] of 10×TBS (1 M Tris, 2 M NaCl, 50 mM CaCl2) was added, and pH was adjusted to 8.0 with 1 N NaOH, and 50 μL of human pancreatic elastase was added followed by the incubation for another 48 hours at 4° C. The cells were scraped and transferred to eppendorf tubes and centrifuged for 10 min at 10 000 rpm. The supernatant was transferred to a new eppendorf tube, and protein concentration of the extract was determined. The type I collagen in the extract was analyzed using the human type 1 collagen ELISA kit from MD Bio-products (St. Paul, […]., U.S.A.).
# CCL-110 skin fibroblasts = experiment: Cytotoxicity assay (MTT, Cell Proliferation I kit); assay type: cell-based, human; conditions: up to 100 μg mL−1, 24 hours
# Method: CCL-110 skin fibroblasts were cultured and plated at a density of 0.5×10^4 cells per well in 96-well tissue culture multiwell plates in EMEM medium. On the next day when cells were attached, they were treated with increasing concentrations (0-100 μg mL^−1) of GU-TC7 and CoQ10 (CoQ10 purchased from Sigma Chemical Co., St. Louis, Mo., U.S.A.) at 37° C. for 24 hours in a CO2 incubator maintained at 5% CO2 and 95% air. Cell proliferation assay was performed using the Cell Proliferation I kit (Roche Biochemicals, Indianapolis, Ind., U.S.A.) according to the manufacturer's protocol. The percentage survival of cells at each concentration was calculated based on the untreated control and plotted against drug concentrations (Cochrane, C. B. et al. “Anticancer effects of Annona glabra plant extracts in human leukemic cell lines” Anticancer Res., 2008, 28:965-971). Cytotoxicity assay was repeated three times with triplicate samples in each and mean values calculated.
# MMP-1 = MMP-1 expression ELISA in CCL-110 fibroblasts, with and without TNF-α; assay type: cell-based, human; design: MMP-1 expression compared to untreated CCL-110 cells: dose or concentration left out as unconfirmed; conditions: for MMP-1 protein expression: CCL-110 fibroblasts, 24 hours, 0-100 μg mL−1, without TNF-α
# Method: CCL-110 skin fibroblast cells (10^5 mL^−1) were plated in 0.5% FBS containing EMEM for 24 hours for starvation and then treated with increasing concentrations of GU-TC7 and CoQ10 (0-100 μg mL^−1) for another 24 hours with and without the positive control ([…]). The medium was harvested and analyzed for MMP-1 (ng mL^−1) using the human MMP-1 ELISA kit from R&D Systems (Minneapolis, Minn., U.S.A.) according to the manufacturer's instructions. MMP-1 ELISA studies were repeated three times, with duplicate samples in each assay.
# HSP70 = HSP70 expression ELISA in Menadione-stressed HepG2 cells; assay type: cell-based, human; conditions: 50 μM, 3 hours
# Method: A human liver cell line (HepG2) was used to study the expression of HSP70 in GU-MCT treated cells. The cells (2×10^6/4 ml) were grown in Eagles minimal essential medium and treated with 50 μM Menadione (Vitamin K analogue) for 3 hours in order to induce stress in the presence or absence of increasing concentrations of GU-MCT (0-100 μg/ml). The cells were harvested by scraping and cell lysate prepared by homogenizing cells in 0.5 ml of lysis buffer (R&D systems, Minneapolis, Minn.). Protein concentration of cell lysate was estimated and 10 μg protein was used for ELISA. The ELISA kit from R&D systems, MN was used to analyze the HSP70 protein expression (pg/ml) in the cell extract. The percentage of change in HSP70 expression was calculated based on the expression in untreated sample (100%).
# HepG2 cells = experiment: HDL and LDL/VLDL cholesterol quantification in HepG2 cells; assay type: cell-based, human
# Method: HepG2 cells (2×106) were incubated with increasing concentrations of Glucodox (0-100 ug/ml) for 72 hours at 37° C. The cells, after washing with PBS, were lysed with methanol:choloroform […] solution. Both HDL an LDL fractions were separated and estimated using the HDL and LDL/VLDL quantification kit (MBL International Corporation, MA).
compound,measurement,setting,value
"O=C1CSC(=O)N1 [2,4 Thiazolidinedione, 2,4-Thiazolidinedione]",glucose uptake (insulin sensitivity),3T3-L1 adipocytes,more potent than the guggul extracts
"COC1=C(OC)C(=O)C(C/C=C(\C)CC/C=C(\C)CC/C=C(\C)CC/C=C(\C)CC/C=C(\C)CC/C=C(\C)CC/C=C(\C)CC/C=C(\C)CC/C=C(\C)CCC=C(C)C)=C(C)C1=O [CoQ10, coenzyme Q10]",human elastase expression,human elastase,no such inhibition was evident; also recorded: no inhibition of elastase at any evaluated concentration
same,type I collagen synthesis,type I collagen,inhibitory trend was noticed with increasing doses
same,type I collagen synthesis,type I collagen; listed as Coenzyme Q10,enhanced synthesis of type I collagen
same,cytotoxic effects on CCL-110 skin fibroblasts,CCL-110 skin fibroblasts,no cytotoxic effects
same,cytotoxic effects on CCL-110 skin fibroblasts,CCL-110 skin fibroblasts; listed as Coenzyme Q10,little cytotoxicity
same,MMP-1 protein expression,MMP-1,"inhibits MMP-1 at 5 μg mL^−1, the inhibition rate remained almost constant with increasing concentrations"
same,MMP-1 protein expression,MMP-1; listed as Coenzyme Q10,inhibition of MMP-1 expression
CC1=CC(=O)c2ccccc2C1=O [Menadione],down regulation of HSP70 expression,HSP70,40%
CC[C@H](C)C(=O)O[C@H]1CCC=C2C=C[C@H](C)[C@H](CC[C@@H]3C[C@@H](O)CC(=O)O3)[C@H]21 [Mevastatin],HDL in cellular extracts and cell culture medium,HepG2 cells,not induced
TNF-α,MMP-1 expression compared to untreated CCL-110 cells,MMP-1; TNF-α treatment,three times
